From article PMC7395176, “Retromer stabilization results in neuroprotection in a model of Amyotrophic Lateral Sclerosis” (Nature Communications, 2020)
Several values for one entry are separate records, joined by “and”; a condition that tells them apart may be missing. Equal values may be shown once.

Legend:
Type in all cases: cell-based
[1] = system: SOD1^G93A-transfected Neuro2a cells; test: Golgi morphology (Golgin97) in SOD1G93A-transfected Neuro2a cells; settings: 10 µM
From the text: (§1) The Golgi apparatus is affected in MNs from ALS patients and in cells overexpressing mutant SOD1 forms[35]–[37]. We transiently transfected Neuro2a cells with plasmids encoding SOD1^G93A before treatment with compound 2a. […] We next determined the viability of Neuro2a cells transfected with SOD1^G93A and exposed to compound 2a using a colorimetric assay. Controls cells received LacZ plasmids. […] We observed a slight, but not significant, reduction of cell viability in […] Neuro2a cells (Fig. 3b). […] The increased cell viability provided by compound 2a could result from unknown, nonspecific off-target effects. Therefore, we used plasmids encoding VPS35 to increase/stabilize the retromer complex. […] However, this phenotype was reverted co-transfecting VPS35 and SOD1^G93A plasmids (Fig. 3c).
Golgi morphology was assessed in control or in Neuro2a cells receiving G93A plasmids with or without compound 2a (10 µM) as well as in GFP-transfected cells as additional control. We used Golgin97 immunofluorescence to label trans-Golgi network membranes. We classified Golgi morphology as follow: normal (polarized network), intermediate (partially fragmented) or fragmented (severely fragmented with Golgi stacks dispersed in the cytoplasm throughout). […] Golgi subclasses were expressed as a percent of the total number of Golgi scored for each experimental condition.

[2] = system: SOD1^G93A-transfected Neuro2a cells; test: Cell viability of SOD1G93A-transfected Neuro2a cells (colorimetric assay); settings: 10 µM
From the text: as §1
Having observed a marked improvement of viability in SOD1^G93A-transfected Neuro2a cells with VPS35 gain of function, we investigated the effect of VPS35 loss of function. We transfected Neuro2a cells with RNAi plasmids encoding a siRNA duplex for VPS35, to knockdown VPS35 and disrupt the retromer assembly. […] By including Sh56 plasmids in the transfection mix, we worsened this phenotype (Fig. 3d). […] We next assayed cytotoxicity by measuring lactate dehydrogenase (LDH) release with a LDH-Glo™ cytotoxicity assay. […]

Neuro2a cells = test: Neuro2a cell survival (CCK8) with increasing 2a concentrations; settings: 48 h
Procedure: We assessed the cytotoxicity of compound 2a, measuring survival of Neuro2a cells exposed to increasing 2a concentrations. […] We next checked for toxic effects of compound 2a in primary neuronal cultures coupled with Micro Electrode Array (MEA) devices. Mouse cortical neurons (E16.5) were plated on MEAs, kept in culture for 14 days to develop firing activity and recorded in presence of 2a.
Cell survival experiments were run on 96-well plates using Cell Counting Kit-8 (CCK8) survival kit (96992-Sigma–Aldrich) according the manufacturer’s recommendations. Compound 2a cytotoxicity was tested on Neuro2a cells receiving increasing amounts of compound 2a (1, 10, 50, 100, 200, 500, and 1000 µM) for 48 h. Data were acquired using an Epoch spectrophotometer equipped with the GEN5 (2.03.1) software (Agilent).

VPS35 = VPS35 (Mus musculus, UniProt Q9EQH3+Q9QZ88); test: Cycloheximide (CHX) chase assay of VPS35 degradation in Neuro2a cells; set-up: We incubated Neuro2a cells with compounds 2a–6a (10 µM); endogenous in cells; host or cells: Neuro2a (ATCC CCL-131); settings: 10 µM 24 h pretreatment, CHX up to 8 h
Procedure: We next measured VPS35 degradation rates by a cycloheximide (CHX) chase assay. Neuro2a cells received vehicle or compound 2a (10 µM) for 24 h, then CHX was added and VPS35 levels were measured by WB.
Cycloheximide (CHX) assay was done on Neuro2a cells seeded in 6-well plates and incubated with compound 2a (10 µM) or vehicle for 24 h. We next added CHX (Sigma–Aldrich) at 10 µg/mL and cells were collected at 0, 2, 4, and 8 h for the time-course assay of VPS35 levels by WB.
Compound 2a stabilizes VPS35 levels in Neuro2a cells
A cycloheximide (CHX) chase assay was performed to determine the degradation rate of VPS35 in Neuro2a cells (3x10^5 cells/well). Cells were treated with vehicle or 2a (10 µM) for 24 h, and then chased with CHX (10 µg/mL) for 2, 4 and 8h.
WBs for VPS35 and β-Actin levels. Quantifications of normalized VPS35 levels (means normalized ratios ± SEM versus the time 0) are shown inpanel b (vehicle: n=10 independent wells, 2a: n=8 independent wells obtained from 3 independent experiments; control vs. 2a at 8 hours: p=0.009). c, quantitative real time PCR for Vps35, Vps26 and Vps29 mRNA (Vps35: controls n=8 independent wells; 2a: n=9 independent wells; Vps26 and Vps29: n=9 independent wells/group); data were collected from 3 independent experiments. […]

How did the trans-Golgi fragmentation [1] turn out when `NC(N)=N/N=C/c1cccc(/C=N/N=C(N)N)c1` [compound 2a, phenyl-1,3-bis-guanylhydrazone] was run?
The trans-Golgi fragmentation was “significantly reverted this phenotype”.

And the cell viability [2]?
Its cell viability is “cell viability was restored”.

And the cell survival (Neuro2a cells; 10 μM)?
The cell survival was “did not affect cell survival”.

What about the LD50 (Neuro2a cells; 1–1000 µM) of the same compound?
The LD50 was 257.9 µM and ~260 µM.

What about the “VPS35 degradation in CHX chase” value (VPS35) of the same compound?
The value was “protected VPS35 from degradation”.
